Results as given in US20110039721A1, “METHOD FOR PREDICTION ABOUT CARCINOGENICITY OF SUBSTANCE IN RODENT” (Chemicals Evaluation and Research Institute, priority 2007, published 2011).

Key:
[1] = test system: mRNA expressed from the genes (A) to (D) in rat liver; assay: Behavior of genes (mRNA expression level, oligo-DNA microarray) in rat liver after 28-day oral administration; assay type: in vivo; conditions: mRNA vs vehicle control group
Method in brief: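 Liver mRNA levels were compared with matched vehicle groups, with a shift of at least 1.5-fold up or down deemed significant unless its direction disagreed with other carcinogens. Test substances were dosed orally by gavage daily for 28 days to 5-week-old male F344 rats, four per group.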

[2] = test system: liver; conditions: classification of the substance (Cr+/Cr−); cited from earlier work
[3] = test system: rodent; conditions: classification of the substance (C+/C−); cited from earlier work
[4] = classification of the substance (M+/M−); cited from earlier work
[5] = gene group (A), Unigene No. Rn.167075
[6] = gene group (C), Unigene No. Rn.120914

For `CCOC(=O)C(C)(C)Oc1ccc(Cl)cc1` [TS001, Clofibrate], which “Behavior of gene caused by administration of chemical substance, Gene No. 4846” value ([1]; gene group (A), Unigene No. Rn.144554) is on record?
The value was “−”.

And the “Behavior of gene caused by administration of chemical substance, Gene No. 2026” value [1, 5]?
Its value is “+”.

What about the “Behavior of gene caused by administration of chemical substance, Gene No. 4218” value [1, 5] of the same compound?
The value was “−”.

What about the “Behavior of gene caused by administration of chemical substance, Gene No. 6182” value ([1]; gene group (A), Unigene No. Rn.5834) of the same compound?
The value was “+”.

What about the “Behavior of gene caused by administration of chemical substance, Gene No. 5600” value ([1]; gene group (A), Unigene No. Rn.9836) of the same compound?
The value was “−”.

And the “Behavior of gene caused by administration of chemical substance, Gene No. 1494” value ([1]; gene group (B), Unigene No. Rn.1430)?
The value was “+”.

What about the “Behavior of gene caused by administration of chemical substance, Gene No. 2045” value ([1]; gene group (B), Unigene No. Rn.19329) of the same compound?
The value was “+”.

And the “Behavior of gene caused by administration of chemical substance, Gene No. 2203” value ([1]; gene group (B), Unigene No. Rn.21240)?
Its value is “+”.

And the “Behavior of gene caused by administration of chemical substance, Gene No. 533” value ([1]; gene group (C), Unigene No. Rn.106184)?
Its value is “+”.

What about the “Behavior of gene caused by administration of chemical substance, Gene No. 725” value ([1]; gene group (C), Unigene No. Rn.108075) of the same compound?
Its value is “+”.

What about the “Behavior of gene caused by administration of chemical substance, Gene No. 1163” value ([1]; gene group (C), Unigene No. Rn.11766) of the same compound?
Its value is “+”.

What about the “Behavior of gene caused by administration of chemical substance, Gene No. 4973” value ([1]; gene group (C), Unigene No. Rn.118529) of the same compound?
The value was “+”.

What about the “Behavior of gene caused by administration of chemical substance, Gene No. 4095” value ([1]; gene group (C), Unigene No. Rn.119024) of the same compound?
The value was “+”.

What about the “Behavior of gene caused by administration of chemical substance, Gene No. 1334” value [1, 6] of the same compound?
The value was “−”.

And the “Behavior of gene caused by administration of chemical substance, Gene No. 6620” value [1, 6]?
The value was “−”.

What about the “Behavior of gene caused by administration of chemical substance, Gene No. 6303” value ([1]; gene group (C), Unigene No. Rn.123063) of the same compound?
The value was “−”.

And the “Behavior of gene caused by administration of chemical substance, Gene No. 5878” value ([1]; gene group (C), Unigene No. Rn.143213)?
The value was “−”.

And the “Behavior of gene caused by administration of chemical substance, Gene No. 1131” value ([1]; gene group (C), Unigene No. Rn.144946)?
The value was “−”.

What about the “Behavior of gene caused by administration of chemical substance, Gene No. 1562” value ([1]; gene group (C), Unigene No. Rn.14744) of the same compound?
The value was “−”.

And the “Behavior of gene caused by administration of chemical substance, Gene No. 1741” value ([1]; gene group (C), Unigene No. Rn.1647)?
Its value is “−”.

And the “Behavior of gene caused by administration of chemical substance, Gene No. 893” value ([1]; gene group (C), Unigene No. Rn.164817)?
The value was “+”.

What about the “Behavior of gene caused by administration of chemical substance, Gene No. 6026” value ([1]; gene group (C), Unigene No. Rn.167685) of the same compound?
The value was “−”.

What about the “Behavior of gene caused by administration of chemical substance, Gene No. 154” value ([1]; gene group (C), Unigene No. Rn.185941) of the same compound?
Its value is “−”.

What about the “Behavior of gene caused by administration of chemical substance, Gene No. 1993” value ([1]; gene group (C), Unigene No. Rn.18728) of the same compound?
Its value is “−”.

And the “Behavior of gene caused by administration of chemical substance, Gene No. 813” value ([1]; gene group (C), Unigene No. Rn.201760)?
The value was “+”.

And the “Behavior of gene caused by administration of chemical substance, Gene No. 2494” value ([1]; gene group (C), Unigene No. Rn.23969)?
Its value is “−”.

What about the “Behavior of gene caused by administration of chemical substance, Gene No. 2546” value ([1]; gene group (C), Unigene No. Rn.24561) of the same compound?
Its value is “−”.

And the “Behavior of gene caused by administration of chemical substance, Gene No. 3776” value ([1]; gene group (C), Unigene No. Rn.43232)?
Its value is “−”.

And the “Behavior of gene caused by administration of chemical substance, Gene No. 3929” value ([1]; gene group (C), Unigene No. Rn.4620)?
Its value is “−”.

And the “Behavior of gene caused by administration of chemical substance, Gene No. 1119” value ([1]; gene group (C), Unigene No. Rn.9757)?
The value was “−”.

And the “Behavior of gene caused by administration of chemical substance, Gene No. 6742” value ([1]; gene group (C), Unigene No. Rn.9779)?
Its value is “+”.

And the “Behavior of gene caused by administration of chemical substance, Gene No. 5634” value ([1]; gene group (C), Unigene No. Rn.9862)?
The value was “−”.

What about the “Behavior of gene caused by administration of chemical substance, Gene No. 5726” value ([1]; gene group (D), Unigene No. Rn.9939) of the same compound?
Its value is “−”.

What about the Liver carcinogenicity [2] of the same compound?
The Liver carcinogenicity was “Cr+”.

And the Carcinogenicity [3]?
The Carcinogenicity was “C+”.

What about the “Mutagenicity by Ames test” value [4] of the same compound?
Its value is “M−”.
